Legend:
USP28 = USP28 (Homo sapiens (Human), UniProt Q96RU2); test: Ubiquitin-Rhodamine 110 Assay for USP28 Activity; assay type: biochemical
Outline: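 Single-point screen at 10 μM, 90 min; follow-up dose-response (25 μM top, 3-fold) with 75 pM USP28 (1-1077)-TEV-6*His, 30 min compound preincubation, Ub-Rh110 substrate for 20 min at room temperature, citric acid stop. Buffer pH 8.0 Tris; fluorescence 485/535 nm; IC50 by 4-parameter logistic fit of % inhibition.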

USP25 = USP25 (Homo sapiens (Human), UniProt Q9UHP3); test: Ubiquitin-Rhodamine 110 Assay for USP25 Activity; assay type: biochemical
Chain of USP25 (Q9UHP3 whole entry): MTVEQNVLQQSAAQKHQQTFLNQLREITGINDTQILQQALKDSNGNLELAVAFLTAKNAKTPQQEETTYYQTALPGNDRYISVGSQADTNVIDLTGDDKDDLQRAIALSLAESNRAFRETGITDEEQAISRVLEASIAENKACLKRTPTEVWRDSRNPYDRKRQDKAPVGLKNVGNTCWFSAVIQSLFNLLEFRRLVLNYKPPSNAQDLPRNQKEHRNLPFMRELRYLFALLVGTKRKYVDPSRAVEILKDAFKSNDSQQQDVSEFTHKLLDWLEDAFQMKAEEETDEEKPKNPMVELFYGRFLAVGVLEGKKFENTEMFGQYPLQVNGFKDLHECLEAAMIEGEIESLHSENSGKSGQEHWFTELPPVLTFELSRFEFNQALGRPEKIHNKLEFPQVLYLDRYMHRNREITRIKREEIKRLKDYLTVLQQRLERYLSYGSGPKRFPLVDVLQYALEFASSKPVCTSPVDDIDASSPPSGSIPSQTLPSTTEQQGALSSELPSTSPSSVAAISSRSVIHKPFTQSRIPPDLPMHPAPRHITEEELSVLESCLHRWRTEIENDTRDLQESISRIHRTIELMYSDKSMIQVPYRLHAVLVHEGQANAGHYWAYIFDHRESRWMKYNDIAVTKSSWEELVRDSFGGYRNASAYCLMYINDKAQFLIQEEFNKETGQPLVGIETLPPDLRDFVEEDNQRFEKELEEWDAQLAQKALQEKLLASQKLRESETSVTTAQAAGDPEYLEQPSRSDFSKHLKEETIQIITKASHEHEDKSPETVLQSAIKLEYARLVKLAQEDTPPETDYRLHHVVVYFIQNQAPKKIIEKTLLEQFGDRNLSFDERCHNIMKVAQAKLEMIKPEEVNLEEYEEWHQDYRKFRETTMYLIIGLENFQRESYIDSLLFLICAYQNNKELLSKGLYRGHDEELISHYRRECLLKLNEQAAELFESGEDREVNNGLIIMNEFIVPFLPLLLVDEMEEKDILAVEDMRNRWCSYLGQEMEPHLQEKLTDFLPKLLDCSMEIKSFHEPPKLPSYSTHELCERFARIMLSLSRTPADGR
Outline: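 USP25-His6 (75 pM) preincubated 30 min with compound (25 μM to 1.3 nM, 10-point 3-fold), then Ub-Rh110 added; 45 min at room temperature in pH 8.0 Tris buffer with BME, BGG, Triton X-100, stopped with 10 mM citric acid. Fluorescence 485/535 nm; % inhibition vs no-enzyme and DMSO controls, IC50 by 4-parameter logistic fit.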

Chain of USP28 (Q96RU2 whole entry): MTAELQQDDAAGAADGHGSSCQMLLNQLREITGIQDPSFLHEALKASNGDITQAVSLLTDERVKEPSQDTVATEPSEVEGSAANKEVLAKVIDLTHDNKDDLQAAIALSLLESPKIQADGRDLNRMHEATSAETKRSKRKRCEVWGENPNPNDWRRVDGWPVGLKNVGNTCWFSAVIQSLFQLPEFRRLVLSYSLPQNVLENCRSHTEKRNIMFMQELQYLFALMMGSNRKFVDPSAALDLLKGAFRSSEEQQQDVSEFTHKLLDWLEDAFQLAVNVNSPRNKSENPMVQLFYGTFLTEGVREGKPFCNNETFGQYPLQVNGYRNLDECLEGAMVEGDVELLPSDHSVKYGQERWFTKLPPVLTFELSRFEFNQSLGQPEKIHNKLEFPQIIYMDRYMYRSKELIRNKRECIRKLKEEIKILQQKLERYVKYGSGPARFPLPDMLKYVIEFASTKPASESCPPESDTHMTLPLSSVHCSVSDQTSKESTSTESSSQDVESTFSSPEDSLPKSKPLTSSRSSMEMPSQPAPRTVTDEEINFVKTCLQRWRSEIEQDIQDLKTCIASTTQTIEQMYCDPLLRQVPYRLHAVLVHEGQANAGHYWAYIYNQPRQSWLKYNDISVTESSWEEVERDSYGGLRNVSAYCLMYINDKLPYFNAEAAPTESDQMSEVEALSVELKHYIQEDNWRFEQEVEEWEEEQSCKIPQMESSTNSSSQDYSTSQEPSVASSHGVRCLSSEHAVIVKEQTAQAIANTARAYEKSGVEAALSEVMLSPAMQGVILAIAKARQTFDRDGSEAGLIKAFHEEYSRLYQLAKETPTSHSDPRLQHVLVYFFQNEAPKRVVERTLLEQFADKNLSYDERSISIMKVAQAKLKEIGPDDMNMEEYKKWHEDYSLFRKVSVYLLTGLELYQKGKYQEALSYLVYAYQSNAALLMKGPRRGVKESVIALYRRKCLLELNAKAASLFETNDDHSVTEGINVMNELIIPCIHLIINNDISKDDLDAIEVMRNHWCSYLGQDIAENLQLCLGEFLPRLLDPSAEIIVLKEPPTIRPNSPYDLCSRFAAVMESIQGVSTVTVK

Row | Compound | IC50 (USP28) [nM] | IC50 (USP25) [nM]
1 | CCc1cc(CCNC(=O)c2sc3nc(C)ccc3c2N)ccc1N1CCNCC1 [Example I-78] | < 200 | 200 to 2000
2 | CN[C@H]1CCN(c2ccc(CCNC(=O)c3sc4nc(C)ccc4c3N)cc2Cl)C1 [Example I-79] | 200 to 2000 | 200 to 2000
3 | Cc1ccc2c(N)c(C(=O)NCCc3ccc(N4CCNCC4)cc3C3CC3)sc2n1 [Example I-81] | < 200 | < 200
4 | Cc1ccc2c(N)c(C(=O)NCCc3ccc(N4CCNCC4)cc3-c3ccccc3)sc2n1 [Example I-82] | < 200 | < 200
5 | CCOc1cc(CCNC(=O)c2sc3nc(C)ccc3c2N)ccc1N1CCNCC1 [Example I-83] | 200 to 2000 | 200 to 2000
6 | Cc1ccc2c(N)c(C(=O)NCCc3ccc(N4CCNCC4)c(F)c3F)sc2n1 [Example I-84] | 200 to 2000 | 200 to 2000
7 | CN[C@@H]1CCN(c2ccc(CCNC(=O)c3sc4nc(C)ccc4c3N)cc2Cl)C1 [Example I-85] | 200 to 2000 | 200 to 2000
8 | Cc1ccc2c(N)c(C(=O)NCCc3ccc(N4CCN[C@H](CO)C4)cc3)sc2n1 [Example I-86] | 200 to 2000 | 200 to 2000
9 | Cc1ccc2c(N)c(C(=O)NCCc3ccc(N4CCN[C@@H](CO)C4)cc3)sc2n1 [Example I-87] | < 200 | 200 to 2000
10 | Cc1ccc2c(N)c(C(=O)NCCc3ccc(N4CC5CCC(C4)N5)c(F)c3)sc2n1 [Example I-88] | < 200 | 200 to 2000
11 | Cc1ccc2c(N)c(C(=O)NCCc3ccc(N4CCNCC4)cc3C)sc2n1 [Example I-89] | < 200 | 200 to 2000
12 | Cc1ccc2c(N)c(C(=O)NCCc3ccc4c(c3)CNCC4)sc2n1 [Example I-90] | 200 to 2000 | 200 to 2000
13 | Cc1ccc2c(N)c(C(=O)N[C@H]3C[C@@H](c4ccc(N5CCNCC5)cc4)C3)sc2n1 [Example I-91, cis-3-Amino-6-methyl-N-(3-(4-(piperazin-1-yl)phenyl)cyclobutyl)thieno [2,3-b]pyridine-2-carboxamide] | 200 to 2000 | 200 to 2000
14 | Cc1ccc2c(N)c(C(=O)N[C@H]3C[C@H](c4ccc(N5CCNCC5)cc4)C3)sc2n1 [Example I-92, trans-3-amino-6-methyl-N-(3-(4-(piperazin-1-yl)phenyl)cyclobutyl)thieno[2,3-b]pyridine-2-carboxamide] | 200 to 2000 | 200 to 2000
15 | Cc1ccc2c(N)c(C(=O)NCCc3cc(F)c(N4C[C@@H]5CCN[C@@H]5C4)cc3F)sc2n1 [Example I-95] | < 200 | 200 to 2000
16 | Cc1ccc2c(N)c(C(=O)NCCc3cc(F)c(N4C[C@H]5CCN[C@H]5C4)cc3F)sc2n1 [Example I-96] | < 200 | 200 to 2000
17 | Cc1nc2sc(C(=O)NC[C@@H](C)c3cc(F)c(N4CCNCC4)cc3F)c(N)c2cc1F [Example I-99] | 2000 to 10000 | 2000 to 10000
18 | Cc1nc2sc(C(=O)NC[C@H](C)c3cc(F)c(N4CCNCC4)cc3F)c(N)c2cc1F [Example I-100] | 200 to 2000 | 2000 to 10000
19 | Nc1nc2sc(C(=O)NCCc3ccc(N4CCNCC4)cc3)c(N)c2cc1F [Example I-115, 3,6-Diamino-5-fluoro-N-(4-(piperazin-1-yl)phenethyl)thieno[2,3-b]pyridine-2-carboxamide] | < 200 | 200 to 2000
20 | Cc1ccc2c(N)c(C(=O)NCCc3ccc(N4CCn5ccnc5C4)cc3)sc2n1 [Example I-116, 3-Amino-N-(4-(5,6-dihydroimidazo[1,2-a]pyrazin-7(8H)-yl)phenethyl)-6-methylthieno[2,3-b]pyridine-2-carboxamide] | 200 to 2000 | 200 to 2000
21 | Cc1ccc2c(N)c(C(=O)NCCc3ccc(N4CCN[C@@H](C)C4)cc3)sc2n1 [Example I-121, (S)-3-amino-6-methyl-N-(4-(3-methylpiperazin-1-yl)phenethyl)thieno[2,3-b]pyridine-2-carboxamide] | 200 to 2000 | 200 to 2000
22 | Cc1ccc2c(N)c(C(=O)NCCc3ccc(N4CCNCC4)c(-c4cnn(C(F)F)c4)c3)sc2n1 [Example I-152, 3-Amino-N-(3-(1-(difluoromethyl)-1H-pyrazol-4-yl)-4-(piperazin-1-yl)phenethyl)-6-methylthieno[2,3-b]pyridine-2-carboxamide] | 2000 to 10000 | 10000 to 25000
23 | Cc1ccc2c(N)c(C(=O)NCCc3ccc(N4CCNCC4)c(-c4ccc(C(=O)N5CCCC5)cc4)c3)sc2n1 [Example I-165] | 200 to 2000 | 10000 to 25000
24 | Cc1ccc2c(N)c(C(=O)NCCc3ccc(N4CCNCC4)c(-c4cnn(C5CCOCC5)c4)c3)sc2n1 [Example I-166] | 2000 to 10000 | 10000 to 25000

Row | Compound | IC50 (USP28) [nM] | IC50 (USP25) [nM]
25 | Cc1ccc2c(N)c(C(=O)NCCc3ccc(N4CCNCC4)c(-c4ccccn4)c3)sc2n1 [Example I-168, 3-Amino-6-methyl-N-(4-(piperazin-1-yl)-3-(pyridin-2-yl)phenethyl)thieno[2,3-b]pyridine-2-carboxamide] | 2000 to 10000 | 10000 to 25000
26 | Cc1ccc2c(N)c(C(=O)NCCc3ccc(C4CCNCC4)c(F)c3)sc2n1 [Example I-169, 3-Amino-N-(3-fluoro-4-(piperidin-4-yl)phenethyl)-6-methylthieno[2,3-b]pyridine-2-carboxamide] | < 200 | 200 to 2000
27 | Cc1ccc2c(N)c(C(=O)NCCc3ccc(C(=O)O)cc3)sc2n1 [Example I-173, 4-(2-(3-Amino-6-methylthieno[2,3-b]pyridine-2-carboxamido)ethyl)benzoic acid] | 200 to 2000 | 200 to 2000
28 | Cc1ccc2c(N)c(C(=O)NCCc3ccc(CC(=O)O)cc3)sc2n1 [Example I-174] | 200 to 2000 | 2000 to 10000
29 | Cc1ccc2c(N)c(C(=O)NCCc3cccc(C(=O)O)c3)sc2n1 [Example I-175] | 2000 to 10000 | 2000 to 10000
30 | Cc1ccc2c(N)c(C(=O)NCCc3ccc4c(c3)C[C@H](C(=O)O)C4)sc2n1 [Example I-176] | 200 to 2000 | 200 to 2000
31 | Cc1ccc2c(N)c(C(=O)NCCc3ccc4c(c3)C[C@@H](C(=O)O)C4)sc2n1 [Example I-177] | 200 to 2000 | 200 to 2000
32 | Cc1ccc2c(N)c(C(=O)NCCc3cccc(CC(=O)O)c3)sc2n1 [Example I-178] | 2000 to 10000 | 2000 to 10000
33 | Nc1c(C(=O)NCCc2ccc(N3CCNCC3)c(Cl)c2)sc2nc(C(F)F)ccc12 [Example I-179, 3-Amino-N-(3-chloro-4-(piperazin-1-yl)phenethyl)-6-(difluoromethyl)thieno[2,3-b]pyridine-2-carboxamide] | 2000 to 10000 | 2000 to 10000
34 | Cc1ccc2c(N)c(C(=O)NCCc3ccc(N4CCNCC4)c(O)c3)sc2n1 [Example I-182, 3-amino-N-(3-hydroxy-4-(piperazin-1-yl)phenethyl)-6-methylthieno[2,3-b]pyridine-2-carboxamide] | 200 to 2000 | 2000 to 10000
35 | Cc1cc(N)nc2sc(C(=O)NCCc3ccc(N4CCNCC4)cc3)c(N)c12 [Example I-183, 3,6-Diamino-4-methyl-N-(4-(piperazin-1-yl)phenethyl)thieno[2,3-b]pyridine-2-carboxamide] | 200 to 2000 | 200 to 2000
36 | Nc1ccc2c(N)c(C(=O)NCCc3ccc(N4CCNCC4)cc3)sc2n1 [Example I-184] | 200 to 2000 | 200 to 2000
37 | CN(C)c1ccc2c(N)c(C(=O)NCCc3ccc(N4CCNCC4)cc3)sc2n1 [Example I-186, 3-Amino-6-(dimethylamino)-N-(4-(piperazin-1-yl)phenethyl)thieno[2,3-b]pyridine-2-carboxamide] | 2000 to 10000 | 10000 to 25000
38 | CCNc1ccc2c(N)c(C(=O)NCCc3ccc(N4CCNCC4)cc3)sc2n1 [Example I-188] | < 200 | 200 to 2000
39 | CC(C)Nc1ccc2c(N)c(C(=O)NCCc3ccc(N4CCNCC4)cc3)sc2n1 [Example I-189] | 200 to 2000 | 2000 to 10000
40 | COc1ccc2c(N)c(C(=O)NCCc3ccc(N4CCNCC4)cc3)sc2n1 [Example I-190, 3-Amino-6-methoxy-N-(4-(piperazin-1-yl)phenethyl)thieno[2,3-b]pyridine-2-carboxamide] | 200 to 2000 | 200 to 2000
41 | CCOc1ccc2c(N)c(C(=O)NCCc3ccc(N4CCNCC4)cc3)sc2n1 [Example I-191] | 200 to 2000 | 2000 to 10000
42 | CC(C)Oc1ccc2c(N)c(C(=O)NCCc3ccc(N4CCNCC4)cc3)sc2n1 [Example I-192] | 200 to 2000 | 2000 to 10000
43 | Nc1c(C(=O)NCCc2ccc(N3CCNCC3)cc2)sc2nc(OC(F)F)ccc12 [Example I-193, 3-Amino-6-(difluoromethoxy)-N-(4-(piperazin-1-yl)phenethyl)thieno[2,3-b]pyridine-2-carboxamide] | < 200 | 200 to 2000
44 | CNc1ccc2c(N)c(C(=O)NCCc3ccc(N4CCN(C)CC4)cc3)sc2n1 [Example I-195] | < 200 | 200 to 2000
45 | CNc1ccc2c(N)c(C(=O)NCCc3ccc(C4CCNCC4)cc3)sc2n1 [Example I-196] | 200 to 2000 | 200 to 2000
46 | Cc1nc2sc(C(=O)NCCc3ccc(N4CCNCC4)cc3)c(N)c2cc1C1CC1 [Example I-197, 3-Amino-5-cyclopropyl-6-methyl-N-(4-(piperazin-1-yl)phenethyl)thieno[2,3-b]pyridine-2-carboxamide] | 2000 to 10000 | 10000 to 25000
47 | Cc1nc2sc(C(=O)NCCc3ccc(N4CCNCC4)cc3)c(N)c2cc1N [Example I-198, 3,5-Diamino-6-methyl-N-(4-(piperazin-1-yl)phenethyl)thieno[2,3-b]pyridine-2-carboxamide] | 2000 to 10000 | 10000 to 25000
